Measured values as given in the supplement of paper PMC10307832.

How the values were obtained:
Test in all cases: relative viability (nuclei count vs DMSO), 5 days (fraction); higher = more cells survive
[1] = compound: CC1=C(C(=NN1)C)CC2=C(C3=C(S2)N(C(=O)N(C3=O)C)CC(C)C)C(=O)N4C[C@@H](CO4)O + COc1cc2c(Oc3ccc(NC(=O)C4(C(=O)Nc5ccc(F)cc5)CC4)cc3F)ccnc2cc1OCCCN1CCOCC1 [Foretinib] (partner 0.25 µM)
In short: (§1)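 For relative viability, nuclei counts in treated wells were divided by those in vehicle wells. Lung cancer cell lines had been pin-tool dosed in 1536-well plates the day after seeding and cultured for 5 days, then fixed and stained in one step (final 0.05% Triton X-100, 1% formaldehyde, 1 ug/ml Hoechst) and imaged at 4×. Doses were one drug alone or a fixed anchor-drug dose plus five library-drug doses (not always all listed) in √10 steps, and values are duplicate-plate medians.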

[2] = compound: CC1=C(C(=NN1)C)CC2=C(C3=C(S2)N(C(=O)N(C3=O)C)CC(C)C)C(=O)N4C[C@@H](CO4)O + CS(=O)(=O)N1CCN(Cc2cc3nc(-c4cccc5[nH]ncc45)nc(N4CCOCC4)c3s2)CC1 [Pictilisib] (partner 1 µM)
In short: as §1

IDH-C35 + Tozasertib = compound: Cc1ccccc1C(C(=O)NC1CCCCC1)N(C(=O)Cn1ccnc1C)c1cccc(F)c1 [IDH-C35] + Cc1cc(Nc2cc(N3CCN(C)CC3)nc(Sc3ccc(NC(=O)C4CC4)cc3)n2)n[nH]1 [Tozasertib] (partner 0.1 µM)
In short: as §1

IDH-C35 + Olaparib = compound: Cc1ccccc1C(C(=O)NC1CCCCC1)N(C(=O)Cn1ccnc1C)c1cccc(F)c1 [IDH-C35] + O=C(c1cc(Cc2n[nH]c(=O)c3ccccc23)ccc1F)N1CCN(C(=O)C2CC2)CC1 [Olaparib] (partner 8 µM)
In short: as §1

Cell Line	relative viability ([1]; first compound 0.0025 µM)	relative viability ([1]; first compound 0.007906 µM)	relative viability ([1]; first compound 0.025 µM)	relative viability ([1]; first compound 0.07906 µM)	relative viability ([1]; first compound 0.25 µM)	relative viability ([2]; first compound 0.0025 µM)	relative viability ([2]; first compound 0.007906 µM)	relative viability ([2]; first compound 0.025 µM)	relative viability ([2]; first compound 0.07906 µM)	relative viability ([2]; first compound 0.25 µM)	relative viability (IDH-C35 + Tozasertib; first compound 0.08 µM)	relative viability (IDH-C35 + Tozasertib; first compound 0.253 µM)	relative viability (IDH-C35 + Tozasertib; first compound 0.8 µM)	relative viability (IDH-C35 + Tozasertib; first compound 8 µM)	relative viability (IDH-C35 + Olaparib; first compound 0.08 µM)	relative viability (IDH-C35 + Olaparib; first compound 0.253 µM)	relative viability (IDH-C35 + Olaparib; first compound 0.8 µM)	relative viability (IDH-C35 + Olaparib; first compound 8 µM)	relative viability (IDH-C35 + Tozasertib; first compound 2.53 µM)	relative viability (IDH-C35 + Olaparib; first compound 2.53 µM)
HCC-15	1.05	0.989	0.961	1.03	1.2	0.76	0.911	0.846	0.782	0.856	0.493	0.463	0.342	0.323	0.712	0.733	0.724	0.667	–	–
COR-L23	0.947	1.07	0.8	0.87	0.846	0.806	0.794	0.522	0.589	0.635	0.253	0.174	0.263	0.158	0.332	0.391	0.317	0.349	0.195	0.31
HCC-78	0.579	0.572	0.601	0.527	0.563	0.217	0.218	0.172	0.169	0.194	0.403	0.363	0.388	0.254	0.91	0.78	0.883	0.741	0.383	0.932
NCI-H727	1.15	1.13	0.882	0.876	0.897	0.403	0.483	0.336	0.385	0.517	0.49	0.61	0.647	0.558	0.633	0.873	0.705	0.717	0.606	0.7
NCI-H2087	1.05	1.05	1.03	0.811	1.07	0.958	0.908	0.838	1.04	0.921	0.196	0.23	0.279	0.264	0.561	0.533	0.627	0.558	–	0.58
BEN	0.666	0.629	0.577	0.661	0.596	0.557	0.512	0.435	0.593	0.556	0.5	0.429	0.515	0.552	1.06	1.11	1.03	0.995	0.474	0.952
LCLC-103H	0.89	0.672	0.817	0.84	1.02	0.682	0.615	0.704	0.517	0.721	0.554	0.435	0.47	0.38	0.788	0.71	0.807	0.711	0.499	0.777
EKVX	0.884	0.736	0.69	0.732	0.744	0.544	0.485	0.457	0.449	0.42	0.422	0.373	0.361	0.344	0.859	0.892	0.836	0.802	0.378	0.918
